Tests used:
Assay in all cases: NCI-60 SRB screen
Assay type in all cases: cell-based
786-0 = tested on: 786-0
EKVX = tested on: EKVX
HOP-62 = tested on: HOP-62
HT29 = tested on: HT29
MDA-MB-231/ATCC = tested on: MDA-MB-231/ATCC
OVCAR-5 = tested on: OVCAR-5
OVCAR-8 = tested on: OVCAR-8
SF-268 = tested on: SF-268
SF-295 = tested on: SF-295
SF-539 = tested on: SF-539
SN12C = tested on: SN12C
T-47D = tested on: T-47D
[1] = Homo sapiens, read-out: LC50 (the source's name)

## COc1ccc2[nH]c(=O)c(/C=C/C(=O)c3ccccc3OC)cc2c1 [CTR-20, (E)-6-Methoxy-3-(3-(2-methoxyphenyl)-3-oxoprop-1-enyl) quinolin-2(1H)-one]
786-0
  Log10GI50: -6.42 Molar
  Log10LC50: -5.29 Molar
  Log10TGI: -5.81 Molar
  TGI: 1.56E-6 Molar
786-0; 1.00E-5 Molar
  Growth Percent: 8.21%
786-0; Homo sapiens
  GI50: 0.378 µM
786-0; [1]
  CC50: 5.11 µM
786-0; Log10 Concentration -4.0
  Percent Growth: -97%
786-0; Log10 Concentration -5.0
  Percent Growth: -78%
786-0; Log10 Concentration -6.0
  Percent Growth: 19%
786-0; Log10 Concentration -7.0
  Percent Growth: 93%
786-0; Log10 Concentration -8.0
  Percent Growth: 91%
EKVX
  Log10GI50: -5.69 Molar
  Log10LC50: -4.25 Molar
  Log10TGI: -4.98 Molar
  TGI: 1.05E-5 Molar
EKVX; 1.00E-5 Molar
  Growth Percent: 37.76%
EKVX; Homo sapiens
  GI50: 2.05 µM
EKVX; [1]
  CC50: 55.8 µM
EKVX; Log10 Concentration -4.0
  Percent Growth: -67%
EKVX; Log10 Concentration -5.0
  Percent Growth: 1%
EKVX; Log10 Concentration -6.0
  Percent Growth: 72%
EKVX; Log10 Concentration -7.0
  Percent Growth: 91%
EKVX; Log10 Concentration -8.0
  Percent Growth: 86%
HOP-62
  Log10GI50: -5.91 Molar
  Log10LC50: -4.63 Molar
  Log10TGI: -5.27 Molar
  TGI: 5.32E-6 Molar
HOP-62; 1.00E-5 Molar
  Growth Percent: 8.67%
HOP-62; Homo sapiens
  GI50: 1.24 µM
  LC50: 23.7 µM
HOP-62; Log10 Concentration -4.0
  Percent Growth: -97%
HOP-62; Log10 Concentration -5.0
  Percent Growth: -22%
HOP-62; Log10 Concentration -6.0
  Percent Growth: 58%
HOP-62; Log10 Concentration -7.0
  Percent Growth: 95%
HOP-62; Log10 Concentration -8.0
  Percent Growth: 89%
HT29
  Log10GI50: -6.53 Molar
  Log10LC50: -4.63 Molar
  Log10TGI: -5.86 Molar
  TGI: 1.37E-6 Molar
HT29; 1.00E-5 Molar
  Growth Percent: 7.17%
HT29; Homo sapiens, HT-29
  GI50: 0.293 µM
  LC50: 23.7 µM
HT29; Log10 Concentration -4.0
  Percent Growth: -73%
HT29; Log10 Concentration -5.0
  Percent Growth: -36%
HT29; Log10 Concentration -6.0
  Percent Growth: 6%
HT29; Log10 Concentration -7.0
  Percent Growth: 89%
HT29; Log10 Concentration -8.0
  Percent Growth: 98%
MDA-MB-231/ATCC
  Log10GI50: -5.84 Molar
  Log10LC50: -4.40 Molar
  Log10TGI: -4.96 Molar
  TGI: 1.10E-5 Molar
MDA-MB-231/ATCC; 1.00E-5 Molar
  Growth Percent: 0.32%
MDA-MB-231/ATCC; Homo sapiens
  GI50: 1.44 µM
MDA-MB-231/ATCC; [1]
  CC50: 39.6 µM
MDA-MB-231/ATCC; Log10 Concentration -4.0
  Percent Growth: -86%
MDA-MB-231/ATCC; Log10 Concentration -5.0
  Percent Growth: 4%
MDA-MB-231/ATCC; Log10 Concentration -6.0
  Percent Growth: 59%
MDA-MB-231/ATCC; Log10 Concentration -7.0
  Percent Growth: 102%
MDA-MB-231/ATCC; Log10 Concentration -8.0
  Percent Growth: 102%
OVCAR-5
  Log10GI50: -5.71 Molar
  Log10LC50: -4.33 Molar
  Log10TGI: -4.98 Molar
  TGI: 1.04E-5 Molar
OVCAR-5; 1.00E-5 Molar
  Growth Percent: 12.07%
OVCAR-5; Homo sapiens
  GI50: 1.97 µM
OVCAR-5; [1]
  CC50: 46.6 µM
OVCAR-5; Log10 Concentration -4.0
  Percent Growth: -75%
OVCAR-5; Log10 Concentration -5.0
  Percent Growth: 1%
OVCAR-5; Log10 Concentration -6.0
  Percent Growth: 70%
OVCAR-5; Log10 Concentration -7.0
  Percent Growth: 98%
OVCAR-5; Log10 Concentration -8.0
  Percent Growth: 93%
OVCAR-8
  Log10GI50: -6.06 Molar
  Log10LC50: -4.46 Molar
  Log10TGI: -4.94 Molar
  TGI: 1.16E-5 Molar
OVCAR-8; 1.00E-5 Molar
  Growth Percent: 1.18%
OVCAR-8; Homo sapiens
  GI50: 0.874 µM
OVCAR-8; [1]
  CC50: 34.4 µM
OVCAR-8; Log10 Concentration -4.0
  Percent Growth: -99%
OVCAR-8; Log10 Concentration -5.0
  Percent Growth: 7%
OVCAR-8; Log10 Concentration -6.0
  Percent Growth: 46%
OVCAR-8; Log10 Concentration -7.0
  Percent Growth: 109%
OVCAR-8; Log10 Concentration -8.0
  Percent Growth: 113%
SF-268
  Log10GI50: -6.16 Molar
  Log10LC50: -4.15 Molar
  Log10TGI: -4.98 Molar
  TGI: 1.05E-5 Molar
SF-268; 1.00E-5 Molar
  Growth Percent: 9.36%
SF-268; Homo sapiens
  GI50: 0.69 µM
SF-268; [1]
  CC50: 70.4 µM
SF-268; Log10 Concentration -4.0
  Percent Growth: -59%
SF-268; Log10 Concentration -5.0
  Percent Growth: 1%
SF-268; Log10 Concentration -6.0
  Percent Growth: 42%
SF-268; Log10 Concentration -7.0
  Percent Growth: 93%
SF-268; Log10 Concentration -8.0
  Percent Growth: 92%
SF-295
  Log10GI50: -6.28 Molar
  Log10LC50: -4.42 Molar
  Log10TGI: -4.92 Molar
  TGI: 1.21E-5 Molar
SF-295; 1.00E-5 Molar
  Growth Percent: 8.29%
SF-295; Homo sapiens
  GI50: 0.529 µM
SF-295; [1]
  CC50: 37.6 µM
SF-295; Log10 Concentration -4.0
  Percent Growth: -93%
SF-295; Log10 Concentration -5.0
  Percent Growth: 8%
SF-295; Log10 Concentration -6.0
  Percent Growth: 33%
SF-295; Log10 Concentration -7.0
  Percent Growth: 93%
SF-295; Log10 Concentration -8.0
  Percent Growth: 89%
SF-539
  Log10GI50: -6.35 Molar
  Log10LC50: -4.87 Molar
  Log10TGI: -5.60 Molar
  TGI: 2.49E-6 Molar
SF-539; 1.00E-5 Molar
  Growth Percent: -10.00%
SF-539; Homo sapiens
  GI50: 0.443 µM
  LC50 (concentration killing 50% of starting cells): 13.4 µM
SF-539; Log10 Concentration -4.0
  Percent Growth: -99%
SF-539; Log10 Concentration -5.0
  Percent Growth: -43%
SF-539; Log10 Concentration -6.0
  Percent Growth: 28%
SF-539; Log10 Concentration -7.0
  Percent Growth: 90%
SF-539; Log10 Concentration -8.0
  Percent Growth: 90%
SN12C
  Log10GI50: -6.27 Molar
  Log10LC50: -4.44 Molar
  Log10TGI: -4.99 Molar
  TGI: 1.03E-5 Molar
SN12C; 1.00E-5 Molar
  Growth Percent: 8.57%
SN12C; Homo sapiens
  GI50: 0.537 µM
SN12C; [1]
  CC50: 36.7 µM
SN12C; Log10 Concentration -4.0
  Percent Growth: -89%
SN12C; Log10 Concentration -5.0
  Percent Growth: 1%
SN12C; Log10 Concentration -6.0
  Percent Growth: 32%
SN12C; Log10 Concentration -7.0
  Percent Growth: 100%
SN12C; Log10 Concentration -8.0
  Percent Growth: 102%
T-47D
  Log10GI50: -5.98 Molar
  Log10LC50: -4.32 Molar
  Log10TGI: -4.93 Molar
  TGI: 1.18E-5 Molar
T-47D; 1.00E-5 Molar
  Growth Percent: -2.02%
T-47D; Homo sapiens, T47D
  GI50: 1.06 µM
T-47D; Homo sapiens, T47D, read-out: LC50 (the source's name)
  CC50: 47.9 µM
T-47D; Log10 Concentration -4.0
  Percent Growth: -76%
T-47D; Log10 Concentration -5.0
  Percent Growth: 6%
T-47D; Log10 Concentration -6.0
  Percent Growth: 51%
T-47D; Log10 Concentration -7.0
  Percent Growth: 90%
T-47D; Log10 Concentration -8.0
  Percent Growth: 84%

— article PMC5578999, “Novel quinolone chalcones targeting colchicine-binding pocket kill multidrug-resistant cancer cells by inhibiting tubulin activity and MRP1 function” (Scientific Reports, 2017)
